Counter-ions that a name gives are not always drawn.
Legend:
MDA-MB-231 = experiment: Breast cancer MDA-MB-231 xenograft, tumor volume and TGI (Example 4); type: in vivo, BALB/c nu/nu male mice; details: docetaxel 5->15 mg/kg, SNB-101 20 mg/kg (as SN-38), i.v. Q1W x 6
Protocol: (§1) The thawed cells were cultured for one week or longer, with passages every two or three days. The cells were assayed for viability (trypan blue) and infection with bacteria and yeasts (cell images) and mycoplasma (MycoAlert Mycoplasma detection kit).
(§2) Tumor volume and body weight were measured twice a week (intervals of 3 or 4 days) from the time of grouping to the end of the test, and a tumor growth curve was constructed from the start of drug administration to the end of the test.
(§3) As of the end of the experiment, relative tumor growth inhibition (TGI) to the vehicle was calculated using the following equation.
Tumor growth inhibition (TGI) (%)={1−(ΔT/ΔC)}×100 Equation 2

[1] = Body weight of MDA-MB-231 xenograft mice (Example 4); type: in vivo, BALB/c nu/nu male mice
Protocol: as §2

A549 = experiment: Lung cancer A549 xenograft, tumor volume and TGI (Example 4); type: in vivo, BALB/c nu/nu male mice; details: docetaxel 5->10 mg/kg, SNB-101 20 mg/kg (as SN-38), i.v. Q1W x 5
Protocol: as §1, §2, §3
Tumor growth inhibition (TGI)(%)={1−(ΔT/ΔC)}×100 Equation 2

[2] = Body weight of A549 xenograft mice (Example 4); type: in vivo, BALB/c nu/nu male mice
Protocol: as §2

[3] = tested on: HT-29 colorectal cancer cells; experiment: HT-29 colorectal cancer xenograft, tumor volume (Example 5); type: in vivo, BALB/c nude mice
From the text: A total of 150 BALB/c nude mice (5-week-old males) were obtained and acclimatized for about one week before transplantation of HT-29 colorectal cancer cells into the subcutaneous area of the right hip. […] after transplantation, 50 mice were selected on the basis of the tumor volume and classified into five groups of 10.
[…] after transplantation of the HT-29 colorectal cancer cells, mice were selected based on the tumor volume and randomly divided into 5 groups (10 mice/group). The drug administration group was set as in Table 13, below.
An autopsy was performed on day 28. A 5% dextrose solution used as a vehicle for the control was equally administered at a dose of 10 mL/kg.
Test results are expressed as mean±S.D. in Table 14, below.

AsPC-1 cells = experiment: AsPC-1 pancreatic cancer xenograft, tumor volume and tumor weight (Example 2); details: excised day 22; nab-paclitaxel 5, irinotecan HCl 50, SNB-101 low dose 10/15.9 mg/kg/day
From the text: As a pancreatic cancer cell line for a pancreatic cancer xenograft model, AsPC-1 was used. AsPC-1 cells are aggressive cells and are known to have resistance to gemcitabine.

[4] = Body weight of AsPC-1 xenograft mice (Example 2); type: in vivo, BALB/c nu/nu male mice

## CC(=O)O[C@@]12CO[C@@H]1C[C@H](O)[C@@]1(C)C(=O)[C@H](O)C3=C(C)[C@@H](OC(=O)[C@H](O)[C@@H](NC(=O)OC(C)(C)C)c4ccccc4)C[C@@](O)([C@@H](OC(=O)c4ccccc4)[C@H]21)C3(C)C [Docetaxel, docetaxel]
MDA-MB-231; end of experiment (35 days after drug administration)
  average tumor volume: 1,228.93 mm3
MDA-MB-231; relative to vehicle, end of experiment (day 35)
  TGI (%): 27.6%
[1]; day 0, MDA-MB-231 xenograft mice
  Body weight at the start of drug administration (day 0): 19.63 g
[1]; day 35, docetaxel 5->15 mg/kg, SNB-101 20 mg/kg (as SN-38), i.v. Q1W x 6
  Body weight at the end of the test (day 35): 20.25 g
A549; end of experiment (37 days after drug administration)
  average tumor volume: 402.70 mm3
A549; relative to vehicle, end of experiment (day 37)
  TGI (%): 50.0%
[2]
  Body weight at the start of drug administration (day 0): 17.93 g

## Bevacizumab: monoclonal antibody and target anticancer drug (trade name Avastin)
[3]; day 1, SNB-101 20/31.8 mg/kg venous, bevacizumab 5 mg/kg peritoneal, irinotecan 50 mg/kg venous, days 1, 4, 7
  Tumor volume (mm^3) Test start A (day 1): 96.67 ± 14.79 mm^3
[3]; day 28, SNB-101 20/31.8 mg/kg venous, bevacizumab 5 mg/kg peritoneal, irinotecan 50 mg/kg venous, days 1, 4, 7
  Tumor volume (mm^3) Test end B (day 28): 709.38 ± 266.87 mm^3
[3]; day 28 minus day 1, SNB-101 20/31.8, bevacizumab 5, irinotecan 50 mg/kg
  Tumor Volume Change (mm^3) [B − A]: 612.71 ± 259.64 mm^3

## CCc1c2c(nc3ccc(OC(=O)N4CCC(N5CCCCC5)CC4)cc13)-c1cc3c(c(=O)n1C2)COC(=O)[C@]3(O)CC [Irinotecan HCl, irinotecan hydrochloride]
AsPC-1 cells
  Tumor weight: 0.489 ± 0.101 g
[4]; Day 0, i.v., nab-paclitaxel 5, irinotecan HCl 50, SNB-101 low dose 10/15.9 mg/kg/day (SN-38/irinotecan HCl)
  Body weight, Day 0: 21.3 ± 0.9 g
[4]; Day 3, i.v., nab-paclitaxel 5, irinotecan HCl 50, SNB-101 low dose 10/15.9 mg/kg/day
  Body weight, Day 3: 22.1 ± 1.1 g
[4]; Day 7, i.v., nab-paclitaxel 5, irinotecan HCl 50, SNB-101 low dose 10/15.9 mg/kg/day
  Body weight, Day 7: 22.8 ± 1.1 g
[4]; Day 11, i.v., nab-paclitaxel 5, irinotecan HCl 50, SNB-101 low dose 10/15.9 mg/kg/day
  Body weight, Day 11: 22.9 ± 1.2 g
[4]; Day 14, i.v., nab-paclitaxel 5, irinotecan HCl 50, SNB-101 low dose 10/15.9 mg/kg/day
  Body weight, Day 14: 23.4 ± 1.2 g
[4]; Day 17, i.v., nab-paclitaxel 5, irinotecan HCl 50, SNB-101 low dose 10/15.9 mg/kg/day
  Body weight, Day 17: 22.9 ± 1.2 g
[4]; Day 21, i.v., nab-paclitaxel 5, irinotecan HCl 50, SNB-101 low dose 10/15.9 mg/kg/day
  Body weight, Day 21: 22.6 ± 1.2 g
[4]; Day 22 (autopsy), i.v., nab-paclitaxel 5, irinotecan HCl 50, SNB-101 low dose 10/15.9 mg/kg/day
  Body weight, Day 22: 21.7 ± 1.3 g
[4]; day 22, nab-paclitaxel 5, irinotecan HCl 50, SNB-101 low dose 10/15.9 mg/kg/day
  weight loss rate compared to G1 (vehicle group): 10.0%
